Data taken from US10196390B2, “TYK2 inhibitors and uses thereof” (Nimbus Lakshmi, Inc., priority 2014, dated 2019).

Experiments:
TYK2 = TYK2 (Homo sapiens (Human), UniProt P29597); experiment: Tyk2 activity inhibition assay (radioactive kinase assay / Caliper assay); assay type: biochemical
Protocol: Peptide substrate, [[…]], (20 μM) is prepared in reaction buffer (20 mM Hepes pH 7.5, 10 mM MgCl2, 1 mM EGTA, 0.02% Brij35, 0.02 mg/mL BSA, […], 2 mM DTT, 1% DMSO. TYK2 (Invitrogen) kinase is added, followed by compounds in DMSO. 33PATP is added to initiate the reaction in ATP at 10 μM. Kinase reaction is incubated for 120 min at room temp and reactions are spotted onto P81 ion exchange paper (Whatman #3698-915), and then washed extensively in 0.75% phosphoric acid, prior to reading the radioactivity counts. For JAK2 (Invitrogen) kinase assay the peptide substrate poly[Glu:Tyr](4:1), 0.2 mg/ml is used, in the reaction carried out the same as for TYK2.
(§1) The caliper machine employs an off chip mobility shift assay to detect phosphorylated peptide substrates from kinase assays, using microfluidics technology. The assays are carried out at ATP concentration equivalent to the ATP Km, and at 1 mM ATP. Compounds are serially diluted in DMSO then further diluted in assay buffer (25 mM HEPES, pH 7.5, 0.01% Brij-35, 0.01% Triton, 0.5 mM EGTA). 5 ul of diluted compound was added into wells first, then 10 ul of enzyme mix was added into wells, followed by 10 uL of substrate mix (peptide and ATP in 10 mM MgCl2) to start reaction. Reaction was incubated at 28° C. for 25 min and then added 25 ul stop buffer (100 mM HEPES, 0.015% Brij-35, 50 mM EDTA), followed by reading with Caliper. JAK2 at 1 nM final concentration and TYK2 at 9.75 nM are from Carna, and substrates used are ATP at 20 and 16 uM, respectively. JAK2 assay uses peptide 22 and TYK2 uses peptide 30 (Caliper), each at 3 uM.

JAK2 = JAK2 (Homo sapiens (Human), UniProt O60674); experiment: JAK2 activity inhibition assay (radioactive kinase assay / Caliper assay); assay type: biochemical; details: read-out: JAK2 Ki
JAK2, sequence (O60674 whole entry): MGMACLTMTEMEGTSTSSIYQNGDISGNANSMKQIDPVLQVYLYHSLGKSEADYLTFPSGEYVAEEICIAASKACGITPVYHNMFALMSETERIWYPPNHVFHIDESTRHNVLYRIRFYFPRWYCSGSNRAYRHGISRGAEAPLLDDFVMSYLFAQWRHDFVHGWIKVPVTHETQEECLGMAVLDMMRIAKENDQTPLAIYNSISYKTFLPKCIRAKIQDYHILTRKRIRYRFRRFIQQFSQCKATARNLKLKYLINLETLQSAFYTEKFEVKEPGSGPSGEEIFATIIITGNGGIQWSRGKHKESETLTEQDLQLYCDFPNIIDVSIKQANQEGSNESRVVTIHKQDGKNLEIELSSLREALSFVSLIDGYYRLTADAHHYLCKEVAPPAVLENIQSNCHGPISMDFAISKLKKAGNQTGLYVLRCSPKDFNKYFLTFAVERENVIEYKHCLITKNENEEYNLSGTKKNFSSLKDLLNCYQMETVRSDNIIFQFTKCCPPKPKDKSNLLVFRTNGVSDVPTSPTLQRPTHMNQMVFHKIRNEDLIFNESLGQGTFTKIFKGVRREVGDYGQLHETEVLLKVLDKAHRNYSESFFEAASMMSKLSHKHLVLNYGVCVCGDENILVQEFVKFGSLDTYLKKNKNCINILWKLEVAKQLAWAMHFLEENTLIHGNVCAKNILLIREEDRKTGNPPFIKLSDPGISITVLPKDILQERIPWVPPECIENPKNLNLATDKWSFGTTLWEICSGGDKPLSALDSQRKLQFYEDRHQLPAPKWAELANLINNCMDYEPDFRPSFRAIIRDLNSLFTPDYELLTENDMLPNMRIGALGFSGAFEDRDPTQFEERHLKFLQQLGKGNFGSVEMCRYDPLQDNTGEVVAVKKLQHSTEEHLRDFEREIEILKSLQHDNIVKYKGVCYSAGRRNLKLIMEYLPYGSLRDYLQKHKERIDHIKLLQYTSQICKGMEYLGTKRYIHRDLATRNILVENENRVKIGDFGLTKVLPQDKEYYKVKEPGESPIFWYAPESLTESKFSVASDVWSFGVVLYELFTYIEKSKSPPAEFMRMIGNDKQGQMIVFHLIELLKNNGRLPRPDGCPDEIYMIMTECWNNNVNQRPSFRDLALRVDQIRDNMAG
Protocol: as §1, with “The assays are carried out at ATP concentration equivalent to the ATP Km, and at 1 mM ATP.” left out, “Caliper.” for “Caliper. JAK2 at 1 nM final concentration and TYK2 at 9.75 nM are from Carna, and substrates used are ATP at 20 and 16 uM, respectively. JAK2 assay uses peptide 22 and TYK2 uses peptide 30 (Caliper), each at 3 uM.”

TYK2, sequence (P29597 whole entry): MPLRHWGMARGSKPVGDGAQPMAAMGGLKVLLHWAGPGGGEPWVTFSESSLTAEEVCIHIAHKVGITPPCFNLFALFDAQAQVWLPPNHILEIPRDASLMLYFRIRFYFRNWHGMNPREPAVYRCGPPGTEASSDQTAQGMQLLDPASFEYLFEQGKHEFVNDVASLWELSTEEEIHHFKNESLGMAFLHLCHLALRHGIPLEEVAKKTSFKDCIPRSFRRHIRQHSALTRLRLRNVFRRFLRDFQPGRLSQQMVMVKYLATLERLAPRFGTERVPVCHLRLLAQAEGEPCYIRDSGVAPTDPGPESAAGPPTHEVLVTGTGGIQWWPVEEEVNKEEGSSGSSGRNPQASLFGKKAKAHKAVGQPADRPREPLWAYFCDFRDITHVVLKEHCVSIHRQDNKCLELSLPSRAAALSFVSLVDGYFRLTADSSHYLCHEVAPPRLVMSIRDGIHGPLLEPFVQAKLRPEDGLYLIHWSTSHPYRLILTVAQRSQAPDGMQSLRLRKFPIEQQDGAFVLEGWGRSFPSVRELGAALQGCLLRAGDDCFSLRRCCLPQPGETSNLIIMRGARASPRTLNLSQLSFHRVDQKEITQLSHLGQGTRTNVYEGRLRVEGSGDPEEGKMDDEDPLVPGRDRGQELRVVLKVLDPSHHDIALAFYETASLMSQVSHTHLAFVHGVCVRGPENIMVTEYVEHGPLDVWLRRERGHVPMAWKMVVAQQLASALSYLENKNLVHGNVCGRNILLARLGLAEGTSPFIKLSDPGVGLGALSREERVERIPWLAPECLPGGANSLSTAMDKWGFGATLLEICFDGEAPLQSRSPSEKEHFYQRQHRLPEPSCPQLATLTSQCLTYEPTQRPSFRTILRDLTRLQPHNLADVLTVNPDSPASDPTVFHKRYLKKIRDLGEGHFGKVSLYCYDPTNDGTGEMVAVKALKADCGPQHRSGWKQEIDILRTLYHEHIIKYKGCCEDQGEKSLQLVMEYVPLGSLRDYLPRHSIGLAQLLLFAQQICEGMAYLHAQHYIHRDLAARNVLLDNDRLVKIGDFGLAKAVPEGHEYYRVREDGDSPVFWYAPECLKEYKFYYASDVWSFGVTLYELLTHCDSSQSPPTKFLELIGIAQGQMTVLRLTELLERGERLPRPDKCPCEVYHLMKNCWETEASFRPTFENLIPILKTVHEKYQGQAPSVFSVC

| Compound | Ki (TYK2) [nM] | Ki (JAK2) [nM] |
| --- | --- | --- |
| CN1C(=O)[C@@](C)(c2ccc(Nc3nc(-c4c(F)cccc4F)nc4c3C(=O)NC4)cc2)CC1(C)C [Compound I-222, (R)-2-(2,6-difluorophenyl)-4-((4-(1,3,5,5-tetramethyl-2-oxopyrrolidin-3-yl)phenyl)amino)-6,7-dihydro-5H-pyrrolo[3,4-d]pyrimidin-5-one] | < 10 | 10 to 100 |
| CC(C(=O)O)c1ccc(Nc2nc(-c3c(F)cccc3F)nc3c2C(=O)NC3)cc1 (stereo not drawn) [Compound I-189, 2-(4-((2-(2,6-difluorophenyl)-5-oxo-6,7-dihydro-5H-pyrrolo[3,4-d]pyrimidin-4-yl)amino)phenyl)propanoic Acid] | < 10 | 100 to 1000 |
| O=C1NCc2nc(-c3c(F)cccc3F)cc(Nc3ccc([C@@H]4CCNC4=O)cn3)c21 [Compound I-92, (S)-2-(2,6-difluorophenyl)-4-((5-(2-oxopyrrolidin-3-yl)pyridin-2-yl)amino)-6,7-dihydro-5H-pyrrolo[3,4-b]pyridin-5-one] | < 10 | 10 to 100 |
| COC(=O)Cc1ccc(Nc2nc(-c3c(F)cccc3F)nc3c2C(=O)NC3)cn1 [Compound I-18, methyl 2-(5-((2-(2,6-difluorophenyl)-5-oxo-6,7-dihydro-5H-pyrrolo[3,4-d]pyrimidin-4-yl)amino)pyridin-2-yl)acetate] | 100 to 1000 | > 1000 |
| C[C@]1(c2ccc(Nc3nc(-c4c(F)cccc4F)nc4c3C(=O)NC4)cc2)CCN(C2CCOCC2)C1=O [Compound I-126, (R)-2-(2,6-difluorophenyl)-4-((4-(3-methyl-2-oxo-1-(tetrahydro-2H-pyran-4-yl)pyrrolidin-3-yl)phenyl)amino)-6,7-dihydro-5H-pyrrolo[3,4-d]pyrimidin-5-one] | < 10 | 10 to 100 |
| O=C(O)Cc1ccc(Nc2cc(-c3c(F)cccc3F)nc3c2C(=O)NC3)nc1 [Compound I-186, 2-(6-((2-(2,6-difluorophenyl)-5-oxo-6,7-dihydro-5H-pyrrolo[3,4-b]pyridin-4-yl)amino)pyridin-3-yl)acetic Acid] | < 10 | 100 to 1000 |
| O=C(Cc1ccc(Nc2nc(-c3c(F)cccc3F)nc3c2C(=O)NC3)cn1)NC1CCNCC1 [Compound I-19, 2-(5-((2-(2,6-difluorophenyl)-5-oxo-6,7-dihydro-5H-pyrrolo[3,4-d]pyrimidin-4-yl)amino)pyridin-2-yl)-N-(piperidin-4-yl)acetamide] | 100 to 1000 | > 1000 |
| O=C1NCc2nc(-c3c(F)cccc3Cl)nc(Nc3ccc(C4CCNC4=O)cc3)c21 (stereo not drawn) [Compound I-113, 2-(2-chloro-6-fluorophenyl)-4-((4-(2-oxopyrrolidin-3-yl)phenyl)-amino)-6,7-dihydro-5H-pyrrolo[3,4-d]pyrimidin-5-one] | < 10 | 100 to 1000 |
| CN1C(=O)C(C)(c2ccc(Nc3nc(-c4c(F)cccc4F)nc4c3C(=O)NC4)cc2)CC1(C)C (stereo not drawn) [Compound I-220, 2-(2,6-difluorophenyl)-4-((4-(1,3,5,5-tetramethyl-2-oxo-pyrrolidin-3-yl)phenyl)amino)-6,7-dihydro-5H-pyrrolo[3,4-d]pyrimidin-5-one] | < 10 | 10 to 100 |
| C=C(C(=O)NCC)c1ccc(Nc2nc(-c3c(F)cccc3F)nc3c2C(=O)NC3)cc1 [Compound I-203, 2-(4-((2-(2,6-difluorophenyl)-5-oxo-6,7-dihydro-5H-pyrrolo[3,4-d]pyrimidin-4-yl)amino)phenyl)-N-ethylacrylamide] | 10 to 100 | 100 to 1000 |
| O=C1NCc2nc(-c3c(F)cccc3F)nc(Nc3ccc(C4CCCNC4=O)cc3)c21 (stereo not drawn) [Compound I-153, 2-(2,6-difluorophenyl)-4-((4-(2-oxopiperidin-3-yl)phenyl)amino)-6,7-dihydro-5H-pyrrolo[3,4-d]pyrimidin-5-one] | < 10 | 100 to 1000 |
| COC(=O)C1COCCN1C(=O)Cc1ccc(Nc2nc(-c3c(F)cccc3F)nc3c2C(=O)NC3)cc1 (stereo not drawn) [Compound I-201, methyl 4-(2-(4-((2-(2,6-difluorophenyl)-5-oxo-6,7-dihydro-5H-pyrrolo[3,4-d]pyrimidin-4-yl)amino)phenyl)acetyl)morpholine-3-carboxylate] | < 10 | 100 to 1000 |
| COC(=O)[C@@H]1COCCN1C(=O)Cc1ccc(Nc2nc(-c3c(F)cccc3F)nc3c2C(=O)NC3)cc1 [Compound I-111, methyl (S)-4-(2-(4-((2-(2,6-difluorophenyl)-5-oxo-6,7-dihydro-5H-pyrrolo[3,4-d]pyrimidin-4-yl)amino)phenyl)acetyl)morpholine-3-carboxylate] | 10 to 100 | 100 to 1000 |
| COC(=O)[C@H]1C[C@H](Nc2nc(-c3c(F)cccc3F)nc3c2C(=O)NC3)C1 [Compound I-129, methyl (1r,3r)-3-((2-(2,6-difluorophenyl)-5-oxo-6,7-dihydro-5H-pyrrolo[3,4-d]pyrimidin-4-yl)amino)cyclobutane-1-carboxylate] | > 1000 | > 1000 |
| CN1CCN[C@](C)(c2ccc(Nc3nc(-c4c(F)cccc4F)nc4c3C(=O)NC4)cc2)C1=O [Compound I-216, (R)-2-(2,6-difluorophenyl)-4-((4-(2,4-dimethyl-3-oxopiperazin-2-yl)phenyl)amino)-6,7-dihydro-5H-pyrrolo[3,4-d]pyrimidin-5-one] | < 10 | 100 to 1000 |
| CCNC(=O)Cc1ccc(Nc2nc(-c3c(F)cccc3F)nc3c2C(=O)NC3)cn1 [Compound I-23, 2-(5-((2-(2,6-difluorophenyl)-5-oxo-6,7-dihydro-5H-pyrrolo[3,4-d]pyrimidin-4-yl)amino)pyridin-2-yl)-N-ethylacetamide] | 10 to 100 | > 1000 |
| C[C@H](CO)NC(=O)Cc1ccc(Nc2nc(-c3c(F)cccc3F)nc3c2C(=O)NC3)cc1 [Compound I-63, (R)-2-(4-((2-(2,6-difluorophenyl)-5-oxo-6,7-dihydro-5H-pyrrolo[3,4-d]pyrimidin-4-yl)amino)phenyl)-N-(1-hydroxypropan-2-yl)acetamide] | < 10 | 100 to 1000 |
| CCNC(=O)C(C)(C)c1ccc(Nc2nc(-c3c(F)cccc3F)nc3c2C(=O)NC3)cc1 [Compound I-120, 2-(4-((2-(2,6-difluorophenyl)-5-oxo-6,7-dihydro-5H-pyrrolo[3,4-d]pyrimidin-4-yl)amino)phenyl)-N-ethyl-2-methylpropanamide] | < 10 | 100 to 1000 |
| COC(=O)Cc1ccc(Nc2cc(-c3c(F)cccc3F)nc3c2C(=O)NC3)nc1 [Compound I-132, methyl 2-(6-((2-(2,6-difluorophenyl)-5-oxo-6,7-dihydro-5H-pyrrolo[3,4-b]pyridin-4-yl)amino)pyridin-3-yl)acetate] | < 10 | 10 to 100 |
| CN1CCN(C)[C@@](C)(c2ccc(Nc3nc(-c4c(F)cccc4F)nc4c3C(=O)NC4)cc2)C1=O [Compound I-211, (S)-2-(2,6-difluorophenyl)-4-((4-(1,2,4-trimethyl-3-oxopiperazin-2-yl)phenyl)amino)-6,7-dihydro-5H-pyrrolo[3,4-d]pyrimidin-5-one] | < 10 | 10 to 100 |
| CN1CC[C@@](C)(c2ccc(Nc3nc(-c4c(F)cccc4F)nc4c3C(=O)NC4)cc2)C1=O [Compound I-151, (S)-2-(2,6-difluorophenyl)-4-((4-(1,3-dimethyl-2-oxopyrrolidin-3-yl)phenyl)amino)-6,7-dihydro-5H-pyrrolo[3,4-d]pyrimidin-5-one] | < 10 | 100 to 1000 |
| CN1CCN[C@@](C)(c2ccc(Nc3cc(-c4c(F)cccc4F)nc4c3C(=O)NC4)nc2)C1=O [Compound I-225, (S)-2-(2,6-difluorophenyl)-4-((5-(2,4-dimethyl-3-oxopiperazin-2-yl)pyridin-2-yl)amino)-6,7-dihydro-5H-pyrrolo[3,4-b]pyridin-5-one] | < 10 | < 10 |
| CC1(C)C[C@@H](c2ccc(Nc3nc(-c4c(F)cccc4F)nc4c3C(=O)NC4)cc2)C(=O)N1 [Compound I-218, (S)-2-(2,6-difluorophenyl)-4-((4-(5,5-dimethyl-2-oxopyrrolidin-3-yl)phenyl)amino)-6,7-dihydro-5H-pyrrolo[3,4-d]pyrimidin-5-one] | < 10 | 100 to 1000 |
| O=C(Cc1ccc(Nc2nc(-c3c(F)cccc3F)nc3c2C(=O)NC3)cc1)NCC1CCNCC1 [Compound I-13, 2-(4-((2-(2,6-difluorophenyl)-5-oxo-6,7-dihydro-5H-pyrrolo[3,4-d]pyrimidin-4-yl)amino)phenyl)-N-(piperidin-4-ylmethyl)acetamide] | < 10 | 100 to 1000 |
